The values that follow come from paper PMC4117768, “Conjugation with polyamines enhances the antibacterial and anticancer activity of chloramphenicol” (Nucleic Acids Research, 2014).

Assay type in all cases: cell-based
Data set [1] relates to immortalized human mesothelial Met5A cells. Nature of the data set: Cell viability by trypan blue exclusion assay. The following applies: for IC50: Homo sapiens, MeT-5A, Met5A cells, read-out: IC50 (toxicity, cell viability). As for the experimental part: (§1) ZL34 and Met5A cells were plated in sterile 96-well microtiter plates at 5 × 10^4cells/ml and grown in Dulbecco's modified Eagle's medium (DMEM), provided by Sigma-Aldrich and supplemented with 5% fetal bovine serum. Cultures were maintained in a humidified atmosphere with 5% CO2, at 37°C. Solutions at the appropriate concentration of each compound were added, and then cells were grown for 24, 48, 72 and 96 h. After treatment, the drug was removed by washing the cells twice with phosphate buffered saline. The cells were then trypsinized (100 μl Trypsin-EDTA × 1 (Biosera) solution/well, 10 min at 37°C), mixed with 1 ml DMEM and collected by centrifugation at 3000 × g for 5 min. Cell viabilities were determined by the trypan blue exclusion assay, using a TC10 automated cell counter (BIO-RAD). Viable cells were expressed as a percentage of total cells.
(§2) Figure S5. Toxicity assays in ZL34 and Met5A cell lines. ZL34 or Met5A cells were plated in sterile 96-well microtiter plates at 5×10^4 cells/ml and grown in DMEM, supplemented with 5% fetal bovine serum. Cultures were maintained in a humidified atmosphere with 5% CO2, at 37°C. Solutions at the appropriate concentration of each compound were added, and then cells were grown for 24 h, 72 h and 96 h. After treatment, CAM or compound 4 was removed by washing the cells twice with PBS. The cells were then trypsinized, mixed with 1 ml DMEM and collected by centrifugation at 3,000×g for 5 min. Cell viabilities were determined by the trypan blue exclusion assay, using a TC10 automated cell counter (BIO-RAD). Viable cells were expressed as a percentage of total cells. SPD, spermidine.

Data set [2] has as its system human mesothelioma cells ZL34. Briefly: Cell viability by trypan blue exclusion assay. The conditions noted are these: for IC50: Homo sapiens, ZL34 cells, read-out: IC50 (toxicity, cell viability). As for the experimental part:
as §1, §2

Data set [3] relates to human peripheral blood cells. Nature of the data set: Toxicity assay in human peripheral blood cells (cell counting). As for the experimental part:
Peripheral blood was collected in EDTA-coated tubes from five healthy volunteers (age range: 25–30 years). Cell concentration was adjusted to 1.8 × 10^9 cells/l using RPMI-1640 medium (GIBCO BRL) containing 1% Penicillin/Streptomycin. CAM or PA–CAM conjugates were added at various concentrations and cells were cultured in triplicate under a humidified 5% CO2 atmosphere for 5 days, at 37°C. In parallel, cells were cultured in the absence of CAM or PA–CAM conjugates (control cultures). Counting of cells was performed daily in a CELL-DYN 3700 Hematology Analyzer (Abbott, USA) and values were expressed as a percentage of cells measured in control cultures.
Figure S1. Toxicity assays in human peripheral blood cells. Peripheral blood was collected in EDTA-coated tubes from 5 healthy volunteers (age range: 25-30 years). Cell concentration was adjusted to 1.8×10^9 cells/l using RPMI-1640 medium (GIBCO BRL) containing 1% penicillin/streptomycin. CAM or compound 4 was added at final concentrations equal to 30 or 60 μM and cells were cultured in triplicate under a humidified 5% CO2 atmosphere for 5 days, at 37°C. Control cultures were carried out in the absence of CAM or compound 4. Cultures were counted daily in a CELL-DYN 3700 Hematology Analyzer and values are expressed as a percentage of cells measured in control cultures.

Data set [4] concerns E. coli (A2503C) TA531 cells with pKK35 plasmid, mutated 23S rRNA. Briefly: Growth inhibition of bacterial cell cultures, CAM-resistant mutant. The following applies: for IC50: Escherichia coli, read-out: IC50 (inhibit the growth by half). From the text: (§3) CAM free base [D-(-)threo-1-(p-nitrophenyl)-2-amino-1,3-propanediol], puromycin dihydrochloride, tRNA^Phe from E. coli, dimethyl sulfate (DMS), DMS stop solution and tRNA^Phe from E. coli were purchased from Sigma-Aldrich. Kethoxal and 1-cyclohexyl-3-(2-morpholinoethyl)-carbodiimide metho-p-toluene sulfate (CMCT) were from MP Biomedicals and Fluka Biochemicals, respectively. AMV reverse transcriptase was supplied by Roche, dNTPs by HT Biotechnology, and ddNTPs by Jena Bioscience. L-[2,3,4,5,6 -^3H]Phenylalanine was from Amersham Biosciences and [α-^32P]ATP from Izotop. Cellulose nitrate filters (type HA; 0.45 μm pore size) were from Millipore Corp. Details in experimental procedures of synthesis and physical and spectra data for the synthesized compounds will be published elsewhere. […] The mesothelioma cell line ZL34 and its immortalized counterpart cell line Met5A, were kindly provided by Prof. G. Stathopoulos (University of Patras).
(§4) S. aureus or E. coli cells (400 μl of a 0.700 OD560 preculture) containing wild-type or mutant ribosomes were added in 3.6 ml of LB (Luria Broth) medium and grown at 37°C in the presence or absence of CAM or PA–CAM conjugates until the optical density of the control culture (grown in the absence of drug) reached the value 0.700 at 560 nm. From the growth curves, the IC50 value for each strain was estimated as the concentration of the drug that is required to inhibit the growth by half.

In data set [5] the test system is E. coli (A2058G) TA531 cells with pKK35 plasmid, mutated 23S rRNA. Described as above. The following applies: for IC50: Escherichia coli, read-out: IC50 (inhibit the growth by half).
Text: as §3, §4

The test system of the next data set is wild-type E. coli. Briefly: Growth inhibition of bacterial cell cultures. The following applies: for IC50: Escherichia coli, read-out: IC50 (inhibit the growth by half); for IC50/IC50(puro): wild-type E. coli, IC50(puro) = concentration causing 50% inhibition in peptide-bond formation at 2 mM puromycin. As for the experimental part:
as §4

A further data set deals with wild-type S. aureus. Nature of the data set: Growth inhibition of bacterial cell cultures. The following applies: Staphylococcus aureus, read-out: IC50 (inhibit the growth by half). As for the experimental part:
as §4

Structures are written as SMILES. Where two headings read alike, the source gives them in different places.

Regarding `NCCCN(CCCCN(Cc1ccccc1)Cc1ccccc1)C(=O)CCC(=O)N[C@H](CO)[C@H](O)c1ccc([N+](=O)[O-])cc1` [Compound 4], the IC50 in data set [1] was 60 ± 5 µM; in data set [2], 25 ± 3 µM; in data set [4], 9.4 ± 0.9 µM; in data set [5], 9.4 ± 1 µM; in the data set with wild-type E. coli it was 9.4 ± 0.8 µM; with wild-type S. aureus it was 4.7 ± 0.5 µM. In addition, in data set [1] (Met5A cells exposed to an IC50 dose of the compound, spermidine at 10 × IC50), the “rescue by exogenously added spermidine” value is recorded as “recover little of the lost viability”. Further, the “viability after rescue by exogenously added spermidine” value in data set [2] (ZL34 cells exposed to an IC50 dose of the compound, spermidine at 10 × IC50) is reported as ~95%. Moreover, the “effects on other types of leukocytes” value in data set [3] (30 μM for 24 or 48 h) was “negligible”. Moreover, in data set [3] (120 h culture period), the “effect on the viability of human monocytes and lymphocytes” value was “little or no effect”. For the same molecule, in data set [3] (120 h culture period), the toxicity to neutrophils result was “moderate and transient toxicity”. For the same molecule, the “IC50 superiority over CAM” value in data set [4] (E. coli A2503C mutant) and in data set [5] (E. coli A2058G mutant) was ~2 fold throughout. The “IC50/IC50(puro)” value with wild-type E. coli was 5.60 ± 0.76.
With `O=C(N[C@H](CO)[C@H](O)c1ccc([N+](=O)[O-])cc1)C(Cl)Cl` [CAM, Chloramphenicol], the IC50 in data set [1] is > 300 µM; in data set [2], > 300 µM; in data set [4] it was 24.7 ± 2.3 µM; in data set [5], 15.5 ± 1.3 µM; in the data set with wild-type E. coli (WT-E. coli, LB medium, 37°C), 6.2 ± 0.5 µM; in the data set with wild-type S. aureus (WT-S. aureus, LB medium, 37°C), 3.1 ± 0.3 µM. Moreover, in data set [2] (ZL34 cells treated with 300 μM compound, 3 mM spermidine), the “rescue by exogenously added spermidine” value was “no rescue was observed”. The “effects on other types of leukocytes” value in data set [3] (30 μM for 24 or 48 h) is on record as “negligible”. The “reduction in the viability of neutrophils” value in data set [3] (30 μM for 24 or 48 h) was 20%. Besides, in the data set on wild-type E. coli, the “IC50/IC50(puro)” value turned out to be 1.17 ± 0.13.

The IC50 is the concentration that gives 50% inhibition.
